Measurements: patent publication US5310675A, “Procaryotic carbonyl hydrolases” (priority 1991, dated 1994)
*1 amine or outer side, *2 acyl side, *3 side chain or, on linkers, in order; H or OH if unused. Where a SMILES comes first, the peptide text is derived from it. The star is where a group is joined. pNA = O=[N+]([O-])c1ccc(N*)cc1; Suc = O=C(CCC(=O)[*:2])[*:1]; Bz = O=C(c1ccccc1)*

How the values were obtained:
Assay in all cases: Kinetic parameters from progress curves, p-nitroanilide substrates
Type in all cases: biochemical
Settings in all cases: 25° C., 0.1M tris buffer, pH 8.6
[1] = target: T1, B. amyloliquefaciens subtilisin variant asn+166 (glycine+166 to asn) (Bacillus amyloliquefaciens, UniProt P00782, G273N)
T1 construct: codons for the mature subtilisin corresponding to that secreted by the B. amyloliquefaciens; made in house; host or cells: B. subtilis BG2036
T1 sequence (P00782 108-382 G273N): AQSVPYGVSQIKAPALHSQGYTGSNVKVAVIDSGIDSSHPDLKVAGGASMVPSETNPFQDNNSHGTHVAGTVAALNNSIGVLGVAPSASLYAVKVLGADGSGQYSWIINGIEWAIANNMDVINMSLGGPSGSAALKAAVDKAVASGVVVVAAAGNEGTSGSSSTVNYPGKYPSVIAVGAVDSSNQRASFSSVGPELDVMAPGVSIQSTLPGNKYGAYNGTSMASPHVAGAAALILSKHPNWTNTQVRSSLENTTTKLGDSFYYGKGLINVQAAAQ
Protocol: (§1) B. subtilis strain BG2036 obtained by the method of Example 11 was transformed by the plasmids of Examples 14, 15 or 20 and by pS4-5 as a control. Transformants were plated or cultured in shaker flasks for 16 to 48 h at 37° C. in LB media plus 12.5 μg/ml chloramphenicol. Mutant enzymatically active subtilisin was recovered by dialyzing cell broth against 0.01M sodium phosphate buffer, pH 6.2. The dialyzed broth was then titrated to pH 6.2 with 1N HCl and loaded on a 2.5×2 cm column of CM Cellulose (CM-52 Whatman). After washing with 0.01M sodium phosphate, pH 6.2, the subtilisins (except mutants at position +222) were eluted with the same buffer made 0.08N in NaCl. The mutant subtilisins at position +222 were each eluted with 0.1M sodium phosphate, pH 7.0. The purified mutant and wild type enzymes were then used in studies of oxidation stability, Km, Kcat, Kcat/Km ratio, pH optimum, and changes in substrate specificity.
(§2) Various mutants for glycine+166 were screened for modified Kcat, Km and Kcat/Km ratios. Kinetic parameters were obtained by analysis of the progress curves of the reactions. The rate of reaction was measured as a function of substrate concentration. Data was analyzed by fitting to the Michaelis-Menton equation using the non-linear regression algorithm of Marquardt (Marquardt, D. W. 1963, "J. Soc. Ind. Appl. Math." 11, 431-41).

[2] = target: T2, B. amyloliquefaciens subtilisin variant asp+166 (D166; glycine+166 to asp) (Bacillus amyloliquefaciens, UniProt P00782, G273D)
T2 construct: codons for the mature subtilisin corresponding to that secreted by the B. amyloliquefaciens; made in house; host or cells: B. subtilis BG2036
T2 sequence (P00782 108-382 G273D): as the sequence (P00782 108-382 G273N) above, with N166D counted along it
Protocol: as §1, §2

[3] = target: T3, B. amyloliquefaciens subtilisin variant glu+166 (E166; glycine+166 to glu) (Bacillus amyloliquefaciens, UniProt P00782, G273E)
T3 construct: codons for the mature subtilisin corresponding to that secreted by the B. amyloliquefaciens; made in house; host or cells: B. subtilis BG2036
T3 sequence (P00782 108-382 G273E): as the sequence (P00782 108-382 G273N) above, with N166E counted along it
Protocol: as §1, §2

[4] = target: T4, B. amyloliquefaciens subtilisin, wild type (gly-166) (Bacillus amyloliquefaciens, UniProt P00782)
T4 construct: codons for the mature subtilisin corresponding to that secreted by the B. amyloliquefaciens; made in house; host or cells: B. subtilis BG2036 (transformed with pS4-5)
T4 sequence (P00782 108-382): as the sequence (P00782 108-382 G273N) above, with N166G counted along it
Protocol: as §1, §2

[5] = target: T5, B. amyloliquefaciens subtilisin variant ala+166 (A166; glycine+166 to ala) (Bacillus amyloliquefaciens, UniProt P00782, G273A)
T5 construct: codons for the mature subtilisin corresponding to that secreted by the B. amyloliquefaciens; made in house; host or cells: B. subtilis BG2036
T5 sequence (P00782 108-382 G273A): as the sequence (P00782 108-382 G273N) above, with N166A counted along it
Protocol: as §1, §2

[6] = target: T6, B. amyloliquefaciens subtilisin variant arg+166 (glycine+166 to arg) (Bacillus amyloliquefaciens, UniProt P00782, G273R)
T6 construct: codons for the mature subtilisin corresponding to that secreted by the B. amyloliquefaciens; made in house; host or cells: B. subtilis BG2036
T6 sequence (P00782 108-382 G273R): as the sequence (P00782 108-382 G273N) above, with N166R counted along it
Protocol: as §1, §2

[7] = target: T7, B. amyloliquefaciens subtilisin variant hys+166 (glycine+166 to his) (Bacillus amyloliquefaciens, UniProt P00782, G273H)
T7 construct: codons for the mature subtilisin corresponding to that secreted by the B. amyloliquefaciens; made in house; host or cells: B. subtilis BG2036
T7 sequence (P00782 108-382 G273H): as the sequence (P00782 108-382 G273N) above, with N166H counted along it
Protocol: as §1, §2

[8] = target: T8, B. amyloliquefaciens subtilisin variant lys+166 (glycine+166 to lys) (Bacillus amyloliquefaciens, UniProt P00782, G273K)
T8 construct: codons for the mature subtilisin corresponding to that secreted by the B. amyloliquefaciens; made in house; host or cells: B. subtilis BG2036
T8 sequence (P00782 108-382 G273K): as the sequence (P00782 108-382 G273N) above, with N166K counted along it
Protocol: as §1, §2

[9] = target: T9, B. amyloliquefaciens subtilisin variant phe+166 (glycine+166 to phe) (Bacillus amyloliquefaciens, UniProt P00782, G273F)
T9 construct: codons for the mature subtilisin corresponding to that secreted by the B. amyloliquefaciens; made in house; host or cells: B. subtilis BG2036
T9 sequence (P00782 108-382 G273F): as the sequence (P00782 108-382 G273N) above, with N166F counted along it
Protocol: as §1, §2

Compound	Km [1]	Kcat [2]	Km [2]	Kcat [3]	Km [3]	Km [4]	Km [5]	Km [6]	Km [7]	Km [8]	Kcat [9]	Km [9]
CC(C)[C@H](NC(=O)c1ccccc1)C(=O)NCC(=O)N[C@@H](CCCNC(=N)N)C(=O)Nc1ccc([N+](=O)[O-])cc1 [BVGRpN, benzoyl-L-Valyl-Glycyl-L-Arginyl-p-nitroanilide] (Bz-Val-Gly-Arg-pNA)	120 µM	2 s⁻¹	41 µM	2 s⁻¹	27 µM	1100 µM						
C[C@H](NC(=O)CCC(=O)O)C(=O)N[C@@H](C)C(=O)N1CCC[C@H]1C(=O)N[C@@H](Cc1ccccc1)C(=O)Nc1ccc([N+](=O)[O-])cc1 [sAAPFpN, succinyl-L-Alanyl-L-Alanyl-L-Prolyl-L-Phenylalanyl-p-nitro-anilide] (Suc-AAPF-pNA)	140 µM		580 µM		340 µM	140 µM	27 µM	62 µM	110 µM	34 µM	3 s⁻¹	14 µM
